“Also recorded” adds a separate entry of the source.
Legend:
[1] = tested on: human breast carcinoma cells (MDA-MB-231); assay: subG1 cell cycle FACS apoptosis assay, MDA-MB-231 cells; format: cell-based; settings: about 24 hours; for apoptosis-inducing activity (subG1) relative to peptides SEQID No 28 and SEQID No 1: MDA-MB-231, SEQID No 41 at 50 μM versus monomeric peptides at 100 μM, FIG. 18
Procedure: (§1) The adherent cells (A375 and BxPC-3 cells and MDA-MB-231, respectively) are seeded 24 hours before induction in 6-well plates in culture medium. For this, the cells are washed with PBS, then incubated with trypsin/EDTA solution at 37 degrees Celsius and suspended in culture medium. The 6-well plates are loaded with 1×10^5 cells/cm^2 in culture medium and the cells incubated for 24 hours until induction with the peptides in the incubator. For induction, the peptides are diluted in fresh culture medium. As control solutions, culture medium without peptide (DMSO-containing) in culture medium or etoposide solution is added. The cells are washed with PBS. Thereafter the peptide solution in culture medium is added to the cells. After incubation in the incubator (37° C., 5% CO2) between 1.5 and 24 hours, the cell supernatant is transferred to 15 ml centrifuge tubes, the cells are washed with 0.75 ml PBS and then with 0.5 ml versene solution. Both washings are combined with the cell supernatant. The cells are then added with 0.5 ml of trypsin/EDTA solution and incubated at about 37° C. for at most 10 minutes until the cells detached. The cell suspension is combined with cell supernatant and washings and centrifuged at about 130 g for about 10 minutes. After removing the supernatant, the cells are suspended in 400 μl of cell culture medium (without serum) and mixed with 1.2 ml of 80% ethanol/20% PBS (v/v) and incubated for 1 to 7 days at −20° C. For analysis, the cells are centrifuged at 130 g for 10 min, suspended in 2 ml PBS, and centrifuged again for 5 min. The cells are suspended in 700 μl PI buffer and incubated for 10 min at 37° C. in the dark. Subsequently, the cells are stored dark for a maximum of four hours in an ice bath, then the FACS analysis is performed.
The second method analyzes the cell cycle phases which is drawn from the relative DNA content. Cells labeled by a fluorescent dye, using either DAPI or propidium iodide (PI) were analyzed by a cell sorter. The protocols for cell cultivation, treatment and preparation and staining of the cells for the flow cytometry is given in separate examples. […] When cells die by apoptosis, cellular changes lead to diminished DNA content resulting in a new peak located before the G0/G1 peak, often called “subG1” peak (Broecker-Preuss et al. 2015; Darzynkiewicz et al., 1992; Dbaibo et al. 1998; Fischbeck et al. 2011).
The “Flowing Software 2” program is used to draw from the raw data of the flow cytometer an FSC/SSC plot. This first step is performed in order to analyze a selected cell fraction excluding cells with both small FSC and small SSC values. Therefore, a gating area is drawn in a two-dimensional FSC/SSC plot (region R-1) which contains mainly intact cells, but no small vesicles. This is initially done for each cell type using reference cells which were not incubated with substances inducing cell death. By this selection of the cell fraction, a bias is prevented which would include a very high number of small cellular vesicles (apoptotic bodies) that are formed by membrane blebbing from dying cells, which have a low DNA content but which, by their large number, would increase the fraction of presumptive subG1 cells. […] In this DNA content plot, an analytical region is drawn in the area of lower DNA content to count the cells that show a subG1 peak, as illustrated in FIG. 1. The fraction of apoptotic cells is defined as the fraction of cells with DNA content in the subG1 region as part of the total number of cells in the DNA content plot (FIG. 1).
The evaluation of the FACS analysis to determine the subG1 data was also carried out with the program Flowing Software, version 2.5.1. The fluorescence in the respective analysis channel for DAPI or propidium iodide was plotted as a histogram, the data from the respectively defined region R-1 being utilized (see FIG. 1). […]

[2] = tested on: BxPC-3 human pancreatic cancer cells; assay: subG1 cell cycle FACS apoptosis assay, BxPC-3 cells; format: cell-based; settings: BxPC-3, Protocol B, about 24 hours; for apoptosis-inducing activity (subG1) relative to peptides SEQID No 28 and SEQID No 27: SEQID No 41 at 50 μM versus monomeric peptides at 100 μM, FIG. 19
Procedure: (§2) To transfer adherent cells (A375 and BxPC-3 cells) after culture, cells are washed twice with PBS. To detach the cells, the enzyme biotase is used according to the manufacturer's instructions. For this purpose, after washing with PBS, the cells are mixed with biotase (5 ml of biotase solution per 75 cm^2 surface of the cell culture bottles) and incubated for 5 min at 37 degrees Celsius, and the biotase is separated by centrifugation. Cells cultivated in suspension (MEC-1 and lymphocytes) were transferred by dilution. The cells are suspended in culture medium and counted, each time 1.5×10^5 cells/cm^2 are seeded in 48-well plates and cultured for between 1.5 and 24 hours at 37 degrees Celsius, 5% CO2. Peptides are pre-diluted from stock solution with culture medium and 200 μl of peptide solution added so that final concentrations of 30 to 500 μM peptide are present in at most 1% (v/v) DMSO. As control solutions, culture medium without peptide (DMSO-containing) in culture medium or etoposide solution is added. After incubating the cells for several hours, the cell supernatant is transferred to a FACS tube for each batch and, after washing the cells with PBS, the wash solution is added. Then the cells are incubated with 200 μl of biotase solution for 10 min, 37° C., the cells with the biotase are also transferred to the FACS tube and the cells are collected by centrifugation for 5 min. The cell pellet is suspended in 500 μl of serum-free culture medium, then 1.5 ml of cold 80% ethanol (ethanol/PBS-80/20, v/v, stored at −20° C.) is added, the FACS tubes sealed and stored at −20 degrees Celsius for 15 to 18 h. Thereafter, the cells are centrifuged for 5 minutes at 120 g, suspended after removal of the supernatant in 2 ml PBS and incubated at 37 degrees Celsius for 30 minutes. After re-centrifugation, the cells are suspended in 0.5 ml DAPI solution and incubated for 15 min at 20 degrees Celsius in the dark. Thereafter, the cells are stored dark for a maximum of four hours in an ice bath, followed by the FACS analysis.
as §1, with “performed. […]” for “performed.”

A375 melanoma cells = assay: subG1 cell cycle FACS apoptosis assay, A375 melanoma cells; format: cell-based, human; settings: A375, Protocol B, 100 μM, about 24 hours, FIG. 2
Procedure: as §2, §1
The proportion of cells which have died was determined by two methods, both rely on the analysis of cells by flow cytometry, often called FACS analysis. […]

r-s-t-q-k-w-m-v-v-y-f-r-k [SEQID No 40] was tested, and the “apoptosis-inducing activity (subG1), comparison in words” value (shortened to “apoptosis-inducing activity … in words”) ([1]; MDA-MB-231, 100 μM, FIG. 16, listed as SEQID 40) was “slightly smaller efficiency than SEQID No 33” and the “apoptosis efficiency (subG1), comparison in words” value ([2]; 100 μM, FIG. 17) was “weaker activity”.

In the case of m-v-v-y-f-r-k [SEQID No 4], the “apoptosis-inducing activity … in words” value ([1]; MDA-MB-231, 200 μM, FIG. 13) is reported as “increased apoptosis-inducing activity compared to the peptide SEQ C1”.

In the case of k-w-m-v-v-y-f-r [SEQID No 9], the “apoptosis efficiency (subG1) in view of Peptide SEQ C1” value ([2]; 100 μM, FIG. 14) is reported as “at least fourfold”, the “apoptosis efficiency (subG1) in view of Peptide SEQ No 12” value ([2]; 100 μM, FIG. 14) is reported as “at least threefold” and the “apoptosis induction (subG1), comparison in words” value (“apoptosis induction (subG1)” for short) ([2]; 100 μM, FIG. 14) is reported as “stronger apoptosis induction compared to SEQ C1; also recorded: strongly improved activity compared to peptide SEQID No 1”. For the same substance, the “apoptosis efficiency (subG1), comparison in words” value (A375 melanoma cells) was “extraordinary increased activity compared to peptide SEQ C1”.

In the case of “r-a-s-k-s-q-t-v-k-k-w-m-v-v-y-f-r-k-s-a-r [SEQID No 35]”, the “apoptosis efficiency (subG1), in words” value ([2]; 100 and 200 μM, Examples 107-110) is reported as “slightly higher apoptosis than the peptide sequence SEQID NO 33; also recorded: considerable efficiency to induce apoptosis in pancreatic cancer cells”.

“k-k-w-m-v-v-y-f-r-k-s-g-s-g-s-k-k-w-m-v-v-y-f-r-k [SEQID No 41]” was tested, and the “apoptosis-inducing activity (subG1) relative to peptides SEQID No 28 and SEQID No 1” value [1] was “at least double”, the “apoptosis-inducing activity (subG1) relative to peptides SEQID No 28 and SEQID No 1” value ([1]; listed as dimeric peptide) was “more than two-fold” and the “apoptosis-inducing activity (subG1) relative to peptides SEQID No 28 and SEQID No 27” value [2] was “at least double”. The “apoptosis-inducing activity (subG1) relative to peptides SEQID No 28 and SEQID No 27” value ([2]; listed as dimeric peptide) was “more than two-fold”.

w-w-m-v-v-y-f-r [SEQID No 12] was tested, and the “apoptosis-inducing activity … in words” value ([1]; MDA-MB-231, 200 μM, FIG. 13) was “slightly decreased activity compared to peptide SEQID No 1; also recorded: remarkably improved efficiency than SEQ C1” and the “apoptosis induction (subG1)” value ([2]; 100 μM, FIG. 14) was “stronger apoptosis induction compared to SEQ C1”.

With m-v-v-y-f-r-w [SEQID No 3] the “apoptosis-inducing activity … in words” value ([1]; MDA-MB-231, 200 μM, FIG. 13) was “increased apoptosis-inducing activity compared to the peptide SEQ C1” and the “apoptosis induction (subG1)” value ([2]; 100 μM, FIG. 14) was “stronger apoptosis induction compared to SEQ C1”.

For q-k-w-m-v-v-y-f-r-k [SEQID No 28], the “apoptosis-inducing activity … in words” value ([1]; MDA-MB-231, 100 μM, FIG. 15) was “higher apoptosis-inducing activity” and the “apoptosis-inducing activity … in words” value ([1]; MDA-MB-231, 100 μM, FIG. 15, listed as SEQID NO 28) was “improvement over SEQID NO 27”.

w-m-v-v-y-f-r [SEQID No 1] was tested, and the “apoptosis-inducing activity … in words” value ([1]; MDA-MB-231, 200 μM, FIG. 13) was “increased apoptosis-inducing activity compared to the peptide SEQ C1” and the “apoptosis induction (subG1)” value ([2]; 100 μM, FIG. 14) was “stronger apoptosis induction compared to SEQ C1”.

In the case of k-m-v-v-y-f-r [SEQID No 2], the “apoptosis-inducing activity … in words” value ([1]; MDA-MB-231, 200 μM, FIG. 13) is reported as “increased apoptosis-inducing activity compared to the peptide SEQ C1” and the “apoptosis induction (subG1)” value ([2]; 100 μM, FIG. 14) is reported as “stronger apoptosis induction compared to SEQ C1”.

Reference: patent US20220160812A1, “A PHARMACEUTICALLY ACTIVE SUBSTANCE” (Cytopharma GmbH, priority 2019, published 2022)
